In ChEMBL document CHEMBL1146524, “Isolation of homodolastatin 16, a new cyclic depsipeptide from a Kenyan collection of Lyngbya majuscula” (J Nat Prod, 2003):
Converted amounts (≈) assume the structure as drawn. Starred links: 1 amine or outer side, 2 acyl side, 3 side chain; linkers in the order of their positions; H or OH if unused. Non-standard residues stand in square brackets, D forms with d. Residues, ends and D or L forms follow the SMILES beside them. X1 = CC(Cc1ccccc1)C(N[*:1])C(=O)[*:2]; X2 = CC(C)C(N[*:1])C(C)C(=O)[*:2]; dNMeV = CN[C@@H](C(=O)O)C(C)C; dHiv = CC(C)[C@@H](O)C(=O)O; Lac = C[C@H](O)C(=O)O

Assays:
NCI-H460 = assay: Cytotoxicity against human NCI-H460 cells after 48 hrs by MTT method; type: functional; conditions: NCI-H460, 48 h
KM-20L2 = assay: Cytotoxicity against human KM20L2 cells after 48 hrs by MTT method; type: functional; conditions: KM-20L2, 48 h
SF-295 = assay: Cytotoxicity against human SF295 cells after 48 hrs by MTT method; type: functional; conditions: SF-295, 48 h
SK-MEL-5 = assay: Cytotoxicity against human SK-MEL-5 cells after 48 hrs by MTT method; type: functional; conditions: SK-MEL-5, 48 h
[1] = Cytotoxicity against human WHCO1 cells after 48 hrs by MTT method; type: functional, cell-based; conditions: WHCO1, 48 h
[2] = Cytotoxicity against human WHCO6 cells after 48 hrs by MTT method; type: functional, cell-based; conditions: WHCO6, 48 h
ME-180 = assay: Cytotoxicity against human ME180 cells after 48 hrs by MTT method; type: functional, cell-based; conditions: ME-180, 48 h

Q: Which GI50 (NCI-H460) does the source give for CC(C)C1NC(=O)[C@@H]2CCCN2C(=O)C(C(C)Cc2ccccc2)NC(=O)[C@@H]2CCCN2C(=O)[C@@H](C(C)C)N(C)C(=O)[C@@H](C(C)C)OC(=O)[C@@H]2CCCN2C(=O)[C@H](C)OC(=O)C1C (some centres not stated) [DOLASTATIN 16] (cyclo([Lac]P[dHiv][dNMeV]P[X1]P[X2])) here?
A: Its GI50 is 0.96 ng/mL (≈ 1.09 nM).

Q: And the GI50 (KM-20L2)?
A: The GI50 was 1.2 ng/mL (≈ 1.37 nM).

Q: And the GI50 (SF-295)?
A: The GI50 was 5.2 ng/mL (≈ 5.92 nM).

Q: What about the GI50 (SK-MEL-5) of the same molecule?
A: The GI50 was 3.3 ng/mL (≈ 3.75 nM).

Q: With CC[C@H](C)[C@H]1C(=O)N2CCC[C@H]2C(=O)NC(C(C)Cc2ccccc2)C(=O)N2CCC[C@H]2C(=O)NC(C(C)C)C(C)C(=O)OC(C)C(=O)N2CCC[C@H]2C(=O)O[C@H](C(C)C)C(=O)N1C (some centres not stated) [HOMODOLASTATIN 16] as the molecule, how does the IC50 [1] read?
A: Its IC50 is 4300 ng/mL (≈ 4810 nM).

Q: What about the IC50 [2] of the same molecule?
A: Its IC50 is 10100 ng/mL (≈ 11300 nM).

Q: What about the IC50 (ME-180) of the same molecule?
A: The IC50 was 8300 ng/mL (≈ 9290 nM).
